Columns and labels:
[1] = system: PC12 cells that express mutant G93A SOD1 as a YFP fusion protein; assay: high throughput cytotoxicity protection assay
Description: This idea was tested by examining the sensitivity of PC12 cells to SOD1 aggregates in the presence and absence of proteasome inhibitor MG132. PC12 cells expressing no SOD1, wild type SOD1, G85R SOD1 or G93A SOD1 were grown with or without MG132 (FIG. 1). […] The ability of protein aggregates to induce cell death was examined by treating G93A SOD1-expressing cells with MG132 for 24 h, removing the MG132 by washing and assaying cell viability after another 24 h.
PC12 cells expressing G93A SOD1 were treated with 100 nM MG132 with or without co-treatment with geldanamycin or radicicol.

[2] = system: rats with unilateral lesions in the substantia nigra; settings: at 100 to 500 times larger doses than the (+) enantiomer; cited from earlier work
[3] = high doses; cited from earlier work

(−) butaclamol
activity in the protection assay [1]: only the eutomer (+butaclamol) showed activity
behavioral activity [2]: devoid of behavioral activity
effect on epinephrine-induced mortality [3]: devoid of any such activity
